Results on 1 molecule are retold here after ChEMBL document CHEMBL1143408 (Antimicrob Agents Chemother, 2007).

The nature of series [1]: Drug level in human cystic fibrosis patient serum at 2000 mg/20 mins infusion. It is filed as ADME, cell-free. Particulars: iv, read-out: Drug uptake.
Series [2] can be described thus: Drug level in healthy human serum at 2000 mg/20 mins infusion. It is filed as ADME, cell-free. As to conditions: iv, read-out: Drug uptake.
The subject of another series is Pseudomonas aeruginosa. The experiment in a line: Antimicrobial activity against Pseudomonas aeruginosa isolated from cystic fibrosis patient sputum culture.

The structures appear in SMILES notation.

Regarding `C[C@H]1[C@H](NC(=O)/C(=N\OC(C)(C)C(=O)O)c2csc(N)n2)C(=O)N1S(=O)(=O)O` [AZTREONAM], the concentration at 20 min in series [1] came out at 228 µg/mL; in series [2], 242 µg/mL. The same molecule gave a minimum inhibitory concentration (MIC) in the series on Pseudomonas aeruginosa not above 8 ng/mL.

Broadly, the MIC is the least concentration at which growth counts as inhibited. A lower MIC goes with inhibition by little substance.
